Laboratory results reported in US6218419A, “Aminoiminoquinone and aminoquinone alkaloid compounds and methods of use” (priority 1999, dated 2001).
≈ marks a conversion by molar mass, not a printed value.

Tests used:
[1] = biological target: T1, CPP32 (Homo sapiens, UniProt P42574); assay: CPP32 enzyme assay; type: biochemical
T1 construct: purchased BASF, Worcester, Mass
T1 sequence (P42574 29-175 limits assumed): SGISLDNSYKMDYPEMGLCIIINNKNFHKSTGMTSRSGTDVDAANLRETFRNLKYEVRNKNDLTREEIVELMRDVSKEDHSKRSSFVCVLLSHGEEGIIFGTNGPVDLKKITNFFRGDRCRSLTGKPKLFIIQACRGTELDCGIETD
T1 sequence (P42574 176-277 limits assumed): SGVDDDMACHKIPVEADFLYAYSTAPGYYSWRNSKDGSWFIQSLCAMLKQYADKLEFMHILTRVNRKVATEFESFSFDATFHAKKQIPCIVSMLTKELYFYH
Protocol: (§1) Each of the following assays were performed using either a Tecan 8051 or a Tecan Megaflex automated liquid handling system. Extracts of marine organisms were tested at 5 μg/ml for all assays except DPP IV and LAR which were tested at 50 μg/ml. The inhibition of enzyme activity found in the presence of extract was compared to that of an uninhibited control. Extracts which inhibited the enzyme>50% were retested in triplicate to confirm activity.
Test samples were aliquoted into 96 well microtiter plates and allowed to air dry. The stock CPP32 enzyme (BASF, Worcester, Mass.) was diluted by adding 10 μl of the enzyme to 17 ml of reaction buffer (50 mM Hepes pH 7.5; 10% glyccrol; 5 mM Dithiothreitol; 0.5 mM EDTA). A volume of 180 μl of the diluted enzyme was added to wells containing the dried test samples, or to empty wells (control). The contents of the microtiter wells were mixed by shaking on a plate shaker. Plates were incubated at 30° C. for 5 minutes. […] Controls for each plate consisted of an inhibitor control (50 nM DEVD-CHO final concentration); positive control (enzyme and substrate) and negative control (reaction buffer substrate). The plates were covered with aluminum foil and mixed using a plate shaker for 5 min. then incubated at 30° C. for 30 minutes. Plates were read using a plate reader with absorbance measured at 405 nm. Data was expressed as percent inhibition by comparing the absorbance values of test samples with those of the positive control (no sample).

[2] = tested on: A549 human lung adenocarcinoma; assay: A549 in vitro anti-tumor testing (MTT); type: cell-based
Protocol: (§2) P388 cells can be obtained from the National Cancer Institute, Bethesda, Md., and A549 cells can be obtained from American Type Culture Collection, Rockville, Md. All cell lines are maintained in Roswell Park Memorial Institute (RPMI) medium 1640 supplemented with 10% bovine calf serum. All cell lines are cultured in plastic tissue culture flasks and kept in an incubator at 37° C. in humidified air containing 5% CO2. Prior to testing, antibiotic-free stock cultures of each of the cell lines are subcultured to 10^6 cells/ml by dilution in fresh growth medium at 2 to 3 day intervals.
Similar procedures are utilized for A549 cells which require an additional 48 hr exposure prior to MTT addition. Results are expressed as percent inhibition compared to the negative (no drug) control. Positive drug controls are included to monitor drug sensitivity of each of the cell lines. These include varying dilutions of 5-fluorouracil, adriamycin, methotrexate and vinblastine.
(§3) To quantitate the effects on cell proliferation and resulting IC50 values, 75 μl of warm growth media containing 5 mg/ml MTT is added to each well, cultures are returned to the incubator, and left undisturbed for 90 minutes. […]

[3] = biological target: T2, Calcineurin (Bos taurus, UniProt P48452); assay: Calcineurin phosphatase assay (pNPP); type: biochemical, bovine; conditions: for inhibition at 0.5 µg/mL / inhibition at 5 µg/mL: 1 h, read-out: CaN, I; for inhibition at 0.5 µg/mL: at 0.5 μg/ml; for inhibition at 5 µg/mL: at 5 μg/ml; for IC50: pure compound, read-out: CaN, IC50 (converted)
T2 construct: Calcineurin was prepared from bovine brain; from tissue; host or cells: bovine brain
Protocol: Calcineurin activity was assayed in 96-well microtiter plates in a final volume of 50 μl. Each well contained 50 mM Tris-HCI pH 7.5, 0.5 mM MnCl2, 0.05 mM CaCl2, 1 mM DTT, 50 mM p-nitrophenylphosphate (pNPP), 0.3 μg calcineurin, a five-fold excess of calmodulin, and either test samples or control compounds. Plates were incubated at 30° C. for 60 min. Liberated p-nitrophenol was determined by the change in absorbance at 405 nm.

[4] = biological target: T3, ICE (Homo sapiens, UniProt P29466); assay: ICE enzyme assay; type: biochemical
T3 construct: purchased BASF, Worcester, Mass
T3 sequence (P29466 120-297 limits assumed): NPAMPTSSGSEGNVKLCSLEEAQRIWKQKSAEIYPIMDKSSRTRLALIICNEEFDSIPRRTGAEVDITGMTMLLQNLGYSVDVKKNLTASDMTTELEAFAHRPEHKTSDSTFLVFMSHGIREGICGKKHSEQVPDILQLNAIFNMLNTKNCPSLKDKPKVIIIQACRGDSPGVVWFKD
T3 sequence (P29466 317-404 limits assumed): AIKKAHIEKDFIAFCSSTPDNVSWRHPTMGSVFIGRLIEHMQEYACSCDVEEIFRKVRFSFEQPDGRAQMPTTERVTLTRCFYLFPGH
Protocol: as §1
Test samples were aliquoted into 96 well microtiter plates and allowed to air dry. Stock ICE enzyme (supplied by BASF, Worcester, Mass.) was diluted in reaction buffer (50 mM Hepes pH 7.5, 10% glycerol, 5 mM dithiothreitol,0.5 mM EDTA and 5 mM β-mercaptoethanol) to a concentration that yielded a minimum increase of 0.1 optical density units after 30 minutes of reaction time. Diluted ICE enzyme was incubated at room temperature for 5 minutes prior to aliquoting 180 μl into each sample well. The plates were incubated at 30° C. for 5 minutes following a brief mixing of the well contents by shaking on a plate shaker. A volume of 20 μl of the enzyme substrate (Ac-YVAD-pNA) was added to each well resulting in a final concentration of 50 μM. […] Plates were read on a plate reader with absorbance measured at 405 nm. Data was expressed as percent inhibition by comparing the absorbance values of test samples with those of the positive control (no sample).

[5] = tested on: unstimulated lymphocytes; assay: Lymphocyte viability (LCV) testing; type: cell-based
Source text: (§4) These assays measure the ability of the extracts/pure compounds to inhibit allogeneic immune responsiveness (MLR) and to affect the viability of unstimulated lymphocytes. These general methods are described in the following: Longley, R. E., D. Caddigan, D. Harmody, M. Gunasekera and S. P. Gunasekera (1991) Transplantation 52: 650-656.

[6] = tested on: P388 murine leukemia; assay: P388 in vitro anti-tumor testing (MTT); type: cell-based; conditions: Mus musculus, 48-hr exposure
Protocol: as §2
To assess the antiproliferative effects of agents against the P388 cell line, 200 μl cultures (96 well tissue culture plates, Nunc, Denmark) are established at 1×10^5 cells/ml in drug-free medium or medium containing the test agent at 10.0, 1.0, 0.10 and 0.010 μg/ml. The solvent for all dilutions is ethanol. All experimental cultures are initiated in medium containing Gentamycin sulfate (50 μg/ml; Schering Corporation, Kenilworth, N.J.). After 48-hr exposure, P388 cells are enumerated using 3-[4,5-Dimethylthiazol-2-yl]-2,5-diphenyltetrazolium bromide (MTT) as described below.
as §3

[7] = tested on: allogeneic immune responsiveness (MLR); assay: Two-way mixed lymphocyte reaction (MLR); type: cell-based
Source text: as §4

[8] = tested on: EL-4.IL-2 murine lymphoma cells; assay: EL-4 adherence testing; type: cell-based
Source text: This assay is based on the properties of extracts/pure compounds which serve as protein kinase C (PKC) active agents to either induce or inhibit the adherence of EL-4.IL-2 murine lymphoma cells to plastic surfaces. The general methodology of this assay is described in detail in the following: Longley, R. E. and D. Harmody (1991) J. Antibiotics 44:93-102.

[9] = biological target: T4, Aminopeptidase N (CD13) (Homo sapiens, UniProt P15144); assay: Aminopeptidase N (CD13) ELISA capture enzyme assay; type: biochemical; conditions: 18 h; at 5 μg/ml; read-out: ApN, I
T4 construct: The source of Aminopeptidase N was the KG-1 cell line; endogenous in cells; host or cells: KG-1 cell lysate
T4 sequence (P15144 whole entry): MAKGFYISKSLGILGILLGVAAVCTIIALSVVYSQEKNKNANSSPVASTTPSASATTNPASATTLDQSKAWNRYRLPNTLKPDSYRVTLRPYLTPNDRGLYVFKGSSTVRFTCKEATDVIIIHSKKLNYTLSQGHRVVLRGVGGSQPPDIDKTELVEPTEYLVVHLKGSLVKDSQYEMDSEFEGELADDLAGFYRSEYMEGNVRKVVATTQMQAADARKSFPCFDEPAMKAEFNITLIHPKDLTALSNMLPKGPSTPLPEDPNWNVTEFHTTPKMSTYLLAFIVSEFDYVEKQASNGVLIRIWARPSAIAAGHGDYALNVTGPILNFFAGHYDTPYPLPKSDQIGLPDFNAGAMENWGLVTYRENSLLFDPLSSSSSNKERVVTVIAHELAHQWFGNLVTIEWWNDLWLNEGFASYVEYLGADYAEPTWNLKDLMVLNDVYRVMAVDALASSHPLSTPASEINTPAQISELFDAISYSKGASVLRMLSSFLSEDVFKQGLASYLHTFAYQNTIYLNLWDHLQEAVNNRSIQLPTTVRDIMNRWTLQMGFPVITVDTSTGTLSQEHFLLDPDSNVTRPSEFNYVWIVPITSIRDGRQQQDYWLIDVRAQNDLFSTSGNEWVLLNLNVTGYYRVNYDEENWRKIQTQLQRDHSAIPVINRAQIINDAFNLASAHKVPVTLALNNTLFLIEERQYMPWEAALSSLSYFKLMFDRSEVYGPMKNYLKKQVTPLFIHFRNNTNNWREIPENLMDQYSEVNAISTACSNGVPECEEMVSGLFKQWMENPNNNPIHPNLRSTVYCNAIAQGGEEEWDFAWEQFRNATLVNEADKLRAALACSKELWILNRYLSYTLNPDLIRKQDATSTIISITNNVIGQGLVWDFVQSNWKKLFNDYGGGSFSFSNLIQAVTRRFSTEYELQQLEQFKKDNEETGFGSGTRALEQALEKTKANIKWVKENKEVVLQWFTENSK
Protocol: as §1
Aminopeptidase N was assayed using an Enzyme-Linked Immunosorbant (ELISA) capture assay. Briefly, 96-well plates were coated with goat anti-mouse immunoglobulins (Sigma #M4169). Following an overnight incubation the plates were washed three times with PBS-0.1% Triton X-100. The secondary (capture) antibody was then added to the plate (100 μl/well, 3.7 μg/ml; antihuman MY7, Coulter Corporation) and incubated for 3 hours at room temperature. Plates were washed three times with PBS-0.1% Triton X-100. The source of Aminopeptidase N was the KG-1 cell line, 100 μl of an appropriate dilution of the KG-1 cell lysate was added to each well, incubated for 3 hours and then washed a final time. The enzyme assay was performed in PBS in a final volume of 200 μl with 200 μM ala-pNA as substrate and either test samples or controls. Liberated p-nitroaniline was determined by the change in absorbance at 405 nm following an 18 hr incubation at 37° C.

Row | CPP32, IC50 [1] | inhibition at 0.5 µg/mL ([1]; 0.5 h, pH 7.5, at 0.5 μg/ml, read-out: CPP32, I) | inhibition at 5 µg/mL ([1]; 0.5 h, pH 7.5, at 5 μg/ml, read-out: CPP32, I) | IC50 [2] | inhibition at 0.5 µg/mL [3] | inhibition at 5 µg/mL [3] | IC50 [3] | ICE inhibition [4] | IC50 [6] | IC50 [7] | inhibition at 5 µg/mL [9] | SMILES | IC50 [5] | EL-4 adherence [8]
1 | 0.02 µg/mL | 76.2% | 86.5% | 0.04 µg/mL | 46% | 75% | 2.15 µM | not detected | 0.06 µg/mL | 0.68 µg/mL (≈ 2.66 µM) | 54.9% | N=C1C(Cl)=C(N)C(=O)c2[nH]cc(C(O)CO)c21 (stereo not drawn) [Secobatzelline A, secobatzelline A] | 1.4 µg/mL (≈ 5.48 µM) | inh. adhesion
2 |  |  |  | 2.86 µg/mL | 22% | 43% | 8.61 µM |  | 1.22 µg/mL |  |  | NC1=C(Cl)C(=O)c2c(C(O)CO)c[nH]c2C1=O (stereo not drawn) [Secobatzelline B, secobatzelline B] |  | 
